Results reported in publication PMC6212778, “Site-specific amino acid substitution in dodecameric peptides determines the stability and unfolding of c-MYC quadruplex promoting apoptosis in cancer cells” (Nucleic Acids Research, 2018).

Experiments:
[1] = tested on: c-MYC quadruplex isomer Myc22; assay: CD melting of free and peptide-bound Myc22; assay type: binding, human
Method: (§1) To understand the role of peptides (FK13, KR12A, KR12B, KR12C, KR12D and KR12E) in stabilizing native and truncated isomers of c-MYC G-quadruplex, we have performed temperature-driven CD melting experiments for free and peptide-bound complexes in JASCO-J815 CD spectrometer. We have gradually titrated the peptides into 10 μM of putative quadruplexes and acquired the spectra after 5 min of peptide addition to allow complex formation and equilibration. Samples are heated from 20 to 95°C having the temperature gradient and the delay time of 2.5°C/min and 150 s respectively. Since the quadruplexes unfold at higher temperatures and revert back to their initial conformations upon renaturation, we have assumed a ‘two-state transition’ model (folded and unfolded) to analyze the melting curves and estimated the melting temperatures (Tm) by fitting the data points into sigmoidal curves (Supplementary information Section 1).

[2] = tested on: BCL-2, VEGF-A, KRAS transcripts in MCF-7 cells; assay: Real time PCR of other oncogene transcripts; assay type: cell-based, human; details: MCF-7, 24 h, qPCR
Method: To inspect the transcription inhibitory roles of peptides in c-MYC, BCL-2, VEGF-A and KRAS oncogenes having putative quadruplexes in their promoters, we performed real time polymerase chain reactions. MCF-7 cells are sub-cultured into 6-well microtiter plates at a density of 1 × 10^6 cells per well and treated with different concentrations of peptides (FK13, KR12A, KR12B and KR12C) for 24 hours. Total RNA is isolated from both untreated and treated cells using TRIzol method (Invitrogen) as per manufacturer's instructions. 2 μg of total RNA is processed for cDNA synthesis and reverse transcribed using a Super MuLV RT Kit (Biobharati Life Sciences Pvt. Ltd.). Real time PCR is performed using Maxima SYBR Green/ROX qPCR Master Mix (2×) (Thermo-Scientific) as per manufacturer's protocol. Housekeeping gene, GAPDH is used as an internal control to normalize the variability in c-MYC mRNA expression levels (Supplementary information Section 1). PCR primers are designed using Primer-BLAST, NCBI, and analyzed in OligoAnalyser 3.1-IDT (Supplementary Table S2).

c-MYC quadruplex (Pu27) = assay: ITC of KR12C with Pu27 under macromolecular crowding (MCF-7 nuclear extract); assay type: binding, human
Method: (§2) Thermodynamic attributes of the interaction profiles between peptides and putative quadruplex sequences are analysed by ITC using iTC200 Microcalorimeter at 25°C. Synthetic peptides (FK13, KR12A, KR12B, KR12C, KR12D and KR12E) are diluted to 20 μM in 10 mM Potassium phosphate buffer (10 mM K2HPO4 + 10 mM KH2PO4) containing 0.1 M KCl (pH 7.0). Syringe is filled with 500 μM quadruplex sequences present in the upstream promoter regions of c-MYC (Pu27, Pu19, and Myc22), BCL-2 (Pu30), VEGF-A (Pu22), KRAS (Pu32) oncogenes, and telomere (Tel26) dissolved into the same buffer. We also carried out the experiment for KR12C and Pu27 using MCF-7 nuclear extract as the solvent to mimic the cellular microenvironment and impart macromolecular crowding during binding events. Same concentration of oligonucleotides is injected into the identical buffer or in nuclear extract without peptides to normalize the heat of dilution of peptide-quadruplex association to that of the control before curve-fitting. […] The heat of reaction per injection (μcal/s) is determined by integration of the peak areas using in-built Origin 7.0 software that provides the best-fit values of enthalpy (ΔH) and entropy (ΔS) of binding, the binding stoichiometry (n), and dissociation constant (Kd) (Supplementary Tables S5(a), S5(b) and S5(c)). […]

BCL-2 (Pu30) quadruplex = assay: ITC of peptides with BCL-2 quadruplex; assay type: binding, human; details: potassium phosphate buffer pH 7.0
Method: as §2

[3] = tested on: telomere (Tel26) quadruplex; assay: ITC of peptides with telomeric quadruplex; assay type: binding, human; details: potassium phosphate buffer pH 7.0
Method: as §2

KRAS (Pu32) quadruplex = assay: ITC of peptides with KRAS quadruplex; assay type: binding, human; details: potassium phosphate buffer pH 7.0
Method: as §2

VEGF-A (Pu22) quadruplex = assay: ITC of peptides with VEGF-A quadruplex; assay type: binding, human; details: potassium phosphate buffer pH 7.0
Method: as §2

[4] = tested on: c-MYC quadruplex isomer Pu19; assay: CD melting of free and peptide-bound Pu19; assay type: binding, human; details: 10 μM quadruplex, two-state model
Method: as §1

MCF-7 cells = assay: Western blot / real time PCR of apoptotic markers and signalling proteins; assay type: cell-based, human; details: MCF-7, 5 and 10 μM KR12C, 24 h
Method: To observe the effect of KR12C in c-MYC protein expression, and to decipher the peptide-driven signaling pathway to trigger apoptosis within cancer cells, we have performed an array of Western Blot experiments. MCF-7 cells are seeded at a density of 7 × 10^5 cells per well into 60 mm dishes and allowed to attach overnight. Next day cells are serum starved for 18 h. At the end of 18 h fresh medium supplemented with 2% FBS +1% antibiotic and anti-mycotic is added. Then cells are treated with 5 μM and 10 μM KR12C. Recombinant VEGF is added at a concentration of 200 ng/ml of medium either alone or in combination with 10 μM KR12C. Cells are harvested after 24 hrs of treatment.
Whole cell lysate is prepared using the Cell Lysis Buffer (Cell Signalling Technologies) according to the manufacturer's protocol supplemented with Phenylmethylsulfonyl fluoride (PMSF) (Merck) and Protease Inhibitory Cocktail (PIC) (Merck). 40 μg of protein is separated using sodium dodecyl sulfate polyacrylamide gel electrophoresis (SDS-PAGE). (4% stacking gel and 12–15% resolving gel). Samples are transferred to polyvinylidene fluoride (PVDF) membranes (Immobilon-P, EMD Millipore). Membranes were blocked using 5% milk in Tris-buffered saline (TBS) with Tween 20 (Amresco) for 45 min at room temperature. Membranes are then incubated overnight at 4°C with the following antibodies: anti-c-Myc (Rabbit polyclonal, 1:500 dil. Cell Signalling Technology Inc.), Mouse anti-Bcl2 (Mouse monoclonal, 1:250 dil. Santacruz Biotechnology Inc.), anti E2F1, anti VEGF-A, anti-P53, anti-APAF1, anti-Caspase 8, anti-PARP (Abcam), anti-β-actin (Mouse monoclonal, 1:10 000 dil. Santacruz Biotechnology Inc.). Next membranes are incubated with peroxidase conjugated anti-rabbit IgG raised in Goat (Sigma, 1:8000 dil.) and peroxidase conjugated anti-mouse IgG raised in Rabbit (Sigma, 1:10 000 dil.) for 2 h at room temperature. Target proteins are visualised on membranes using Clarity TM Western ECL substrate (Bio-rad) and images are captured using ChemiDoc MP system with Image Lab™ software for PC version 6.0 (Bio-rad).

Substance | depletion of the melting temperature of Myc22 upon peptide binding [1] | transcription of other oncogenes (BCL-2, VEGF-A, KRAS) [2] | Kd (c-MYC quadruplex (Pu27); 25°C, MCF-7 nuclear extract as solvent, single-site model, background subtracted) | fold increase in binding affinity for Pu27 in MCF-7 nuclear extract versus potassium phosphate buffer (c-MYC quadruplex (Pu27); macromolecular crowding) | binding affinity with BCL-2 quadruplex (BCL-2 (Pu30) quadruplex) | fold decreased affinity for BCL-2 quadruplex compared to c-MYC quadruplexes (BCL-2 (Pu30) quadruplex) | fold decreased affinity for telomeric quadruplex compared to c-MYC quadruplexes [3] | binding affinity with KRAS quadruplex (KRAS (Pu32) quadruplex) | binding affinity with VEGF-A quadruplex (VEGF-A (Pu22) quadruplex) | rise in the Tm of Myc22 upon peptide binding ([1]; 10 μM quadruplex, two-state model) | rise in the Tm of Pu19 upon peptide binding [4] | expression of p53, cleaved PARP, caspase 8 and APAF-1 (MCF-7 cells; western blot) | BCL-2 expression at transcription and translation level (MCF-7 cells; western blot and real time PCR) | VEGF-A and E2F-1 expression (MCF-7 cells; western blot and real time PCR)
N – KRIVQRIKKWLR – C [KR12A, dodecameric mutant peptide derived from FK13 / LL37] | ~30 °C | abrogated |  |  |  |  |  |  |  |  |  |  |  | 
N – KRIVKLIKKWLR – C [KR12C] |  |  | 901 nM | ~8 fold | very poor or no binding affinity | ~3 fold | ~4 fold | very poor or no binding affinity | very poor or no binding affinity | 6.91 °C | 10.87 °C | significant upregulation | suppressed | significantly suppressed
N – FKRIVQRIKDFLR – C [FK13] |  | abrogated |  |  |  |  |  |  |  |  |  |  |  | 
